Laboratory results taken from article PMC10866072, “Design, synthesis, molecular modelling and biological evaluation of novel 6-amino-5-cyano-2-thiopyrimidine derivatives as potent anticancer agents against leukemia and apoptotic inducers” (Journal of Enzyme Inhibition and Medicinal Chemistry, 2024).

How the values were obtained:
MCF7 = format: cell-based; conditions: Homo sapiens, one dose 10^-5 M, 48 h, read-out: % growth
OVCAR-4 = format: cell-based; conditions: Homo sapiens, one dose 10^-5 M, 48 h
NCI-H460 = format: cell-based; conditions: Homo sapiens, one dose 10^-5 M, 48 h, read-out: % growth
HCC-2998 = format: cell-based; conditions: Homo sapiens, one dose 10^-5 M, 48 h
NCI-H522 = format: cell-based; conditions: Homo sapiens, one dose 10^-5 M, 48 h
SF-295 = format: cell-based; conditions: Homo sapiens, one dose 10^-5 M, 48 h
HCT-15 = format: cell-based; conditions: Homo sapiens, one dose 10^-5 M, 48 h, read-out: % growth
MALME-3M = format: cell-based; conditions: Homo sapiens, one dose 10^-5 M, 48 h
UO-31 = format: cell-based; conditions: Homo sapiens, UO-31, 48 h, one dose 10^-5 M, 48 h
HOP-62 = format: cell-based; conditions: Homo sapiens, one dose 10^-5 M, 48 h
LOX IMVI = format: cell-based; conditions: Homo sapiens, one dose 10^-5 M, 48 h, read-out: % growth
DU-145 = format: cell-based; conditions: Homo sapiens, one dose 10^-5 M, 48 h
COLO 205 = format: cell-based; conditions: Homo sapiens, one dose 10^-5 M, 48 h
HT29 = format: cell-based; conditions: Homo sapiens, HT-29, one dose 10^-5 M, 48 h
SN12C = format: cell-based, human; conditions: Homo sapiens, one dose 10^-5 M, 48 h
A498 = format: cell-based; conditions: Homo sapiens, one dose 10^-5 M, 48 h
CCRF-CEM = format: cell-based; conditions: Homo sapiens, one dose 10^-5 M, 48 h
U251 = format: cell-based; conditions: Homo sapiens, U-251, one dose 10^-5 M, 48 h
CAKI-1 = format: cell-based; conditions: Homo sapiens, CAKI-1, 48 h, one dose 10^-5 M, 48 h
SF-268 = format: cell-based; conditions: Homo sapiens, one dose 10^-5 M, 48 h, read-out: % growth
RPMI-8226 = format: cell-based; conditions: Homo sapiens, one dose 10^-5 M, 48 h
HOP-92 = format: cell-based; conditions: Homo sapiens, one dose 10^-5 M, 48 h
T-47D = format: cell-based; conditions: Homo sapiens, T47D, one dose 10^-5 M, 48 h, read-out: % growth
RXF 393 = format: cell-based; conditions: Homo sapiens, RXF 393, 48 h, one dose 10^-5 M, 48 h, read-out: % growth
SK-MEL-5 = format: cell-based; conditions: Homo sapiens, one dose 10^-5 M, 48 h, read-out: % growth
786-0 = format: cell-based; conditions: Homo sapiens, one dose 10^-5 M, 48 h
HS 578T = format: cell-based; conditions: Homo sapiens; one dose 10^-5 M, 48 h; HS 578T; read-out: % growth
EKVX = format: cell-based; conditions: Homo sapiens, one dose 10^-5 M, 48 h
MDA-MB-435 = format: cell-based; conditions: Homo sapiens, one dose 10^-5 M, 48 h, read-out: % growth
UACC-257 = format: cell-based; conditions: Homo sapiens, one dose 10^-5 M, 48 h
HCT-116 = format: cell-based; conditions: Homo sapiens, one dose 10^-5 M, 48 h, read-out: % growth
UACC-62 = format: cell-based; conditions: Homo sapiens, one dose 10^-5 M, 48 h
NCI-H226 = format: cell-based; conditions: Homo sapiens, one dose 10^-5 M, 48 h
NCI/ADR-RES = format: cell-based; conditions: Homo sapiens, one dose 10^-5 M, 48 h
HL-60(TB) = format: cell-based; conditions: Homo sapiens, one dose 10^-5 M, 48 h
MOLT-4 = format: cell-based; conditions: Homo sapiens, one dose 10^-5 M, 48 h, read-out: % growth
OVCAR-5 = format: cell-based; conditions: Homo sapiens, one dose 10^-5 M, 48 h
SW-620 = format: cell-based; conditions: Homo sapiens, one dose 10^-5 M, 48 h
A549/ATCC = format: cell-based; conditions: Homo sapiens, one dose 10^-5 M, 48 h
SK-MEL-28 = format: cell-based; conditions: Homo sapiens, one dose 10^-5 M, 48 h
SNB-19 = format: cell-based; conditions: Homo sapiens, one dose 10^-5 M, 48 h, read-out: % growth
KM12 = format: cell-based; conditions: Homo sapiens, one dose 10^-5 M, 48 h
M14 = format: cell-based; conditions: Homo sapiens, one dose 10^-5 M, 48 h
NCI-H23 = format: cell-based; conditions: Homo sapiens, one dose 10^-5 M, 48 h, read-out: % growth
SF-539 = format: cell-based; conditions: Homo sapiens, one dose 10^-5 M, 48 h
SK-MEL-2 = format: cell-based; conditions: Homo sapiens, one dose 10^-5 M, 48 h
MDA-MB-468 = format: cell-based; conditions: Homo sapiens, one dose 10^-5 M, 48 h
PC-3 = format: cell-based; conditions: Homo sapiens, one dose 10^-5 M, 48 h
OVCAR-3 = format: cell-based; conditions: Homo sapiens, one dose 10^-5 M, 48 h
K-562 = format: cell-based; conditions: Homo sapiens, K562, one dose 10^-5 M, 48 h
SR = format: cell-based; conditions: Homo sapiens, one dose 10^-5 M, 48 h
MDA-MB-231/ATCC = format: cell-based; conditions: Homo sapiens, one dose 10^-5 M, 48 h
ACHN = format: cell-based; conditions: Homo sapiens, one dose 10^-5 M, 48 h
[1] = system: full NCI 60 cell lines panel
IGROV1 = format: cell-based; conditions: Homo sapiens, IGROV-1, one dose 10^-5 M, 48 h, read-out: % growth
BT-549 = format: cell-based; conditions: Homo sapiens, one dose 10^-5 M, 48 h
SK-OV-3 = format: cell-based; conditions: Homo sapiens, one dose 10^-5 M, 48 h
TK-10 = format: cell-based; conditions: Homo sapiens, one dose 10^-5 M, 48 h
OVCAR-8 = format: cell-based; conditions: Homo sapiens, one dose 10^-5 M, 48 h

N=C(NN=Cc1ccccc1)c1c(N)nc(S)nc1-c1ccc(Cl)cc1Cl [Compound 4m, 4-Amino-6–(2,4-dichlorophenyl)-2-mercapto-N'-[phenylmethylene]pyrimidine-5-carboximidohydrazide]
activity at 10 µM (MCF7): 89.1% | % growth at 10 µM (OVCAR-4): 115% | activity at 10 µM (NCI-H460): 108% | % growth at 10 µM (HCC-2998): 105% | % growth at 10 µM (NCI-H522): 109% | % cell growth at 10 µM (SF-295): 86.9% | activity at 10 µM (HCT-15): 101% | % growth at 10 µM (MALME-3M): 85.7% | % cell growth at 10 µM (UO-31): 90.1% | % growth at 10 µM (HOP-62): 96.6% | activity at 10 µM (LOX IMVI): 100% | % growth at 10 µM (DU-145): 111% | % growth at 10 µM (COLO 205): 115% | % growth at 10 µM (HT29): 108% | % growth at 10 µM (SN12C): 95.9% | % growth at 10 µM (A498): 125% | % cell growth at 10 µM (CCRF-CEM): 105% | % growth at 10 µM (U251): 97.3% | % growth at 10 µM (CAKI-1): 96% | activity at 10 µM (SF-268): 105% | % growth at 10 µM (RPMI-8226): 104% | % growth at 10 µM (HOP-92): 69.2% | activity at 10 µM (T-47D): 103% | activity at 10 µM (RXF 393): 89.5% | activity at 10 µM (SK-MEL-5): 103% | % growth at 10 µM (786-0): 92.5% | activity at 10 µM (HS 578T): 102% | % cell growth at 10 µM (EKVX): 103% | activity at 10 µM (MDA-MB-435): 110% | percent cell growth at 10 µM (UACC-257): 106% | activity at 10 µM (HCT-116): 103% | % growth at 10 µM (UACC-62): 94.3% | % growth at 10 µM (NCI-H226): 92% | cell growth percent at 10 µM (NCI/ADR-RES): 105% | % growth at 10 µM (HL-60(TB)): 97.1% | activity at 10 µM (MOLT-4): 96.2% | percent cell growth at 10 µM (OVCAR-5): 108% | % growth at 10 µM (SW-620): 109% | % growth at 10 µM (A549/ATCC): 97.4% | % cell growth at 10 µM (SK-MEL-28): 104% | activity at 10 µM (SNB-19): 95.8% | % growth at 10 µM (KM12): 103% | % growth at 10 µM (M14): 96.2% | activity at 10 µM (NCI-H23): 98.7% | % growth at 10 µM (SF-539): 100% | % growth at 10 µM (SK-MEL-2): 120% | percent cell growth at 10 µM (MDA-MB-468): 91.1% | percent cell growth at 10 µM (PC-3): 103% | % growth at 10 µM (OVCAR-3): 109% | % growth at 10 µM (K-562): 95.8% | percent cell growth at 10 µM (SR): 83.2% | % growth at 10 µM (MDA-MB-231/ATCC): 94.4% | % growth at 10 µM (ACHN): 108% | activity at 10 µM ([1]; Homo sapiens, 60 cell, 48 h, read-out: Mean % growth): 101% | activity on all 60 cancer cell lines tested (in words) ([1]; one dose): weak activity | activity at 10 µM (IGROV1): 101% | % cell growth at 10 µM (BT-549): 88.5% | % growth at 10 µM (SK-OV-3): 95.6% | % cell growth at 10 µM (TK-10): 140% | % growth of cells at 10 µM (OVCAR-8): 109%
